Test system: Staphylococcus aureus (g+) LMG 8064
Assay: poison plate assay (bacteria)
Assay type: cell-based
Conditions: LMG8064, 120 h, ppm total active ingredient, Tryptose Agar, 27° C., 70% relative humidity, growth evaluated after five days, ratio % (I) + % (II-a), read-out: MIC-values (minimum inhibitory concentration) in ppm
From the text: When the Synergy Index is greater than 1.0, antagonism is indicated. When the SI is equal to 1.0, additivity is indicated.

`C=CCOC(Cn1ccnc1)c1ccc(Cl)cc1Cl` (stereo not shown) [100 + 0] showed an MIC of 25 µg/mL.
